Nine compounds from US10538554B2, “Peptides and uses therefor as antiviral agents” (priority 2015, dated 2020) can be followed below.

The test system of one experiment is H3N8 A/Miami/2/63. The conditions noted are these: A/Miami/2/63, 48 h, 10 μM.
In a further experiment the test system is H1N1 A/PR/8/1934. The following applies: A/PR/8/1934, 48 h, 10 μM.
The subject of a further experiment is H1N1 A/NY/18/2009. The conditions noted are these: A/NY/18/2009, 48 h, 10 μM.
The test system of the next experiment is H3N2 A/HK/8/1968. The following applies: A/HK/8/1968, 48 h, 10 μM.
Another experiment relates to H9N2 A/Iran/16/2000. The conditions noted are these: 48 h, 10 μM.
In experiment [1] the test system is H1N1 A1/Malaysia/302/1954. The following applies: A1/Malaysia/302/1954, 48 h, 10 μM.

Bridge positions count the residues as written; N and C are the ends. Square brackets hold non-standard residues; d marks the D form. Peptide text beside a SMILES is read from it.

Regarding `CC[C@@H](C)[C@H]1NC(=O)[C@@H](Cc2ccccc2)NC(=O)[C@@H](CCCCN)NC(=O)[C@@H](Cc2ccccc2)NC(=O)[C@@H](Cc2c[nH]c3ccccc23)NC(=O)[C@@H]([C@H](C)O)NC(=O)[C@H](NC(=O)[C@H](CCCCN)NC(=O)[C@H](CCCCN)NC(=O)[C@H](CCCNC(=N)N)NC(=O)[C@@H](N)CCCNC(=N)N)CSSC[C@H](C(=O)O)NC(=O)[C@@H](CC(N)=O)NC1=O` [PSP IV A9, H-RRKKctwfkfinc-OH] (H-RRKK[dC][dT][dW][dF][dK][dF][dI][dN][dC]-OH; disulfide 5-13), in the experiment with H3N8 A/Miami/2/63, the “% inhibition H3N8” value turned out to be 79%. Moreover, the “% Inhibition PR/8” value with H1N1 A/PR/8/1934 is 74%. Besides, the “% Inhibition Pdm 2009” value with H1N1 A/NY/18/2009 is reported as 66%. For the same compound, in the experiment on H3N2 A/HK/8/1968, the “% inhibition H3N2” value is 73%. Besides, the “% inhibition H9N2” value in the experiment on H9N2 A/Iran/16/2000 turned out to be 39%. Also, in experiment [1], the “% inhibition H1N1” value amounted to 56%.
On to `CC[C@@H](C)[C@H]1NC(=O)[C@@H](Cc2ccccc2)NC(=O)[C@@H](CCSC)NC(=O)[C@@H](Cc2ccccc2)NC(=O)[C@@H](Cc2c[nH]c3ccccc23)NC(=O)[C@@H]([C@H](C)O)NC(=O)[C@H](NC(=O)[C@H](CCCCN)NC(=O)[C@H](CCCCN)NC(=O)[C@H](CCCNC(=N)N)NC(=O)[C@@H](N)CCCNC(=N)N)CSSC[C@H](C(=O)O)NC(=O)[C@@H](CC(N)=O)NC1=O` [PSP IV A11, H-RRKKctwfmfinc-OH] (H-RRKK[dC][dT][dW][dF][dM][dF][dI][dN][dC]-OH; disulfide 5-13), for which the “% inhibition H3N8” value in the experiment on H3N8 A/Miami/2/63 is listed as 93%. Moreover, the “% Inhibition PR/8” value with H1N1 A/PR/8/1934 was determined as 85%. Moreover, the “% Inhibition Pdm 2009” value in the experiment with H1N1 A/NY/18/2009 came out at 88%. Besides, in the experiment on H3N2 A/HK/8/1968, the “% inhibition H3N2” value was determined as 90%. Besides, the “% inhibition H9N2” value in the experiment with H9N2 A/Iran/16/2000 came to 84%. Besides, the “% inhibition H1N1” value in experiment [1] was 89%.
With `CC[C@@H](C)[C@H]1NC(=O)[C@@H](Cc2ccccc2)NC(=O)[C@@H](C)NC(=O)[C@@H](Cc2ccccc2)NC(=O)[C@@H](Cc2c[nH]c3ccccc23)NC(=O)[C@@H]([C@H](C)O)NC(=O)[C@H](NC(=O)[C@H](CCCCN)NC(=O)[C@H](CCCCN)NC(=O)[C@H](CCCNC(=N)N)NC(=O)[C@@H](N)CCCNC(=N)N)CSSC[C@H](C(=O)O)NC(=O)[C@@H](CC(N)=O)NC1=O` [PSP IV A1, H-RRKKctwfafinc-OH] (H-RRKK[dC][dT][dW][dF][dA][dF][dI][dN][dC]-OH; disulfide 5-13), the “% inhibition H3N8” value with H3N8 A/Miami/2/63 stood at 83%. Also, in the experiment with H1N1 A/NY/18/2009, the “% Inhibition Pdm 2009” value worked out at 78%. The “% inhibition H9N2” value with H9N2 A/Iran/16/2000 came out at 77%. For the same compound, in experiment [1], the “% inhibition H1N1” value was determined as 78%.
As to `CC[C@@H](C)[C@H]1NC(=O)[C@@H](Cc2ccccc2)NC(=O)[C@@H](CS)NC(=O)[C@@H](Cc2ccccc2)NC(=O)[C@@H](Cc2c[nH]c3ccccc23)NC(=O)[C@@H]([C@H](C)O)NC(=O)[C@H](NC(=O)[C@H](CCCCN)NC(=O)[C@H](CCCCN)NC(=O)[C@H](CCCNC(=N)N)NC(=O)[C@@H](N)CCCNC(=N)N)CSSC[C@H](C(=O)O)NC(=O)[C@@H](CC(N)=O)NC1=O` [PSP IV A2, H-RRKKctwfcfinc-OH] (H-RRKK[dC][dT][dW][dF][dC][dF][dI][dN][dC]-OH; disulfide 5-13), the “% inhibition H3N8” value with H3N8 A/Miami/2/63 is on record as 76%. In addition, the “% Inhibition PR/8” value in the experiment on H1N1 A/PR/8/1934 is 68%. In the experiment with H1N1 A/NY/18/2009, the “% Inhibition Pdm 2009” value was determined as 68%. The “% inhibition H3N2” value in the experiment on H3N2 A/HK/8/1968 is listed as 82%. Besides, the “% inhibition H9N2” value with H9N2 A/Iran/16/2000 amounted to 64%. Besides, the “% inhibition H1N1” value in experiment [1] was determined as 60%.
With `CC[C@@H](C)[C@H]1NC(=O)[C@@H](Cc2ccccc2)NC(=O)[C@@H](Cc2ccc(O)cc2)NC(=O)[C@@H](Cc2ccccc2)NC(=O)[C@@H](Cc2c[nH]c3ccccc23)NC(=O)[C@@H]([C@H](C)O)NC(=O)[C@H](NC(=O)[C@H](CCCCN)NC(=O)[C@H](CCCCN)NC(=O)[C@H](CCCNC(=N)N)NC(=O)[C@@H](N)CCCNC(=N)N)CSSC[C@H](C(=O)O)NC(=O)[C@@H](CC(N)=O)NC1=O` [PSP IV A20, H-RRKKctwfyfinc-OH] (H-RRKK[dC][dT][dW][dF][dY][dF][dI][dN][dC]-OH; disulfide 5-13), in the experiment with H3N8 A/Miami/2/63, the “% inhibition H3N8” value came out at 89%. In the experiment with H1N1 A/PR/8/1934, the “% Inhibition PR/8” value was 85%. In addition, the “% Inhibition Pdm 2009” value with H1N1 A/NY/18/2009 is given as 79%. In the experiment with H3N2 A/HK/8/1968, the “% inhibition H3N2” value is listed as 89%. The “% inhibition H9N2” value in the experiment on H9N2 A/Iran/16/2000 was found to be 85%. The “% inhibition H1N1” value in experiment [1] was found to be 79%.
In the case of `CC[C@@H](C)[C@H]1NC(=O)[C@@H](Cc2ccccc2)NC(=O)[C@@H](CCC(=O)O)NC(=O)[C@@H](Cc2ccccc2)NC(=O)[C@@H](Cc2c[nH]c3ccccc23)NC(=O)[C@@H]([C@H](C)O)NC(=O)[C@H](NC(=O)[C@H](CCCCN)NC(=O)[C@H](CCCCN)NC(=O)[C@H](CCCNC(=N)N)NC(=O)[C@@H](N)CCCNC(=N)N)CSSC[C@H](C(=O)O)NC(=O)[C@@H](CC(N)=O)NC1=O` [PSP IV A4, H-RRKKctwfefinc-OH] (H-RRKK[dC][dT][dW][dF][dE][dF][dI][dN][dC]-OH; disulfide 5-13), the “% inhibition H3N8” value in the experiment with H3N8 A/Miami/2/63 turned out to be 72%. In addition, the “% Inhibition Pdm 2009” value in the experiment with H1N1 A/NY/18/2009 amounted to 45%. Further, the “% inhibition H9N2” value in the experiment on H9N2 A/Iran/16/2000 is listed as 53%. The “% inhibition H1N1” value in experiment [1] is 62%.
`CC[C@@H](C)[C@H]1NC(=O)[C@@H](Cc2ccccc2)NC(=O)[C@H]2CCCN2C(=O)[C@@H](Cc2ccccc2)NC(=O)[C@@H](Cc2c[nH]c3ccccc23)NC(=O)[C@@H]([C@H](C)O)NC(=O)[C@H](NC(=O)[C@H](CCCCN)NC(=O)[C@H](CCCCN)NC(=O)[C@H](CCCNC(=N)N)NC(=O)[C@@H](N)CCCNC(=N)N)CSSC[C@H](C(=O)O)NC(=O)[C@@H](CC(N)=O)NC1=O` [PSP IV A13, H-RRKKctwfpfinc-OH] (H-RRKK[dC][dT][dW][dF][dP][dF][dI][dN][dC]-OH; disulfide 5-13): the “% inhibition H3N8” value in the experiment on H3N8 A/Miami/2/63 is reported as 69%. Moreover, the “% Inhibition PR/8” value with H1N1 A/PR/8/1934 is reported as 66%. In addition, the “% Inhibition Pdm 2009” value in the experiment with H1N1 A/NY/18/2009 is reported as 65%. For the same compound, the “% inhibition H3N2” value with H3N2 A/HK/8/1968 amounted to 74%. The “% inhibition H9N2” value in the experiment on H9N2 A/Iran/16/2000 is 55%. In experiment [1], the “% inhibition H1N1” value amounted to 52%.
Turning to `CC[C@@H](C)[C@H]1NC(=O)[C@@H](Cc2ccccc2)NC(=O)[C@@H](CO)NC(=O)[C@@H](Cc2ccccc2)NC(=O)[C@@H](Cc2c[nH]c3ccccc23)NC(=O)[C@@H]([C@H](C)O)NC(=O)[C@H](NC(=O)[C@H](CCCCN)NC(=O)[C@H](CCCCN)NC(=O)[C@H](CCCNC(=N)N)NC(=O)[C@@H](N)CCCNC(=N)N)CSSC[C@H](C(=O)O)NC(=O)[C@@H](CC(N)=O)NC1=O` [PSP IV A16, H-RRKKctwfsfinc-OH] (H-RRKK[dC][dT][dW][dF][dS][dF][dI][dN][dC]-OH; disulfide 5-13), the “% inhibition H3N8” value in the experiment on H3N8 A/Miami/2/63 is 93%. The “% Inhibition PR/8” value in the experiment on H1N1 A/PR/8/1934 turned out to be 78%. Also, the “% Inhibition Pdm 2009” value in the experiment on H1N1 A/NY/18/2009 worked out at 81%. Also, in the experiment on H3N2 A/HK/8/1968, the “% inhibition H3N2” value is given as 96%. Also, in the experiment with H9N2 A/Iran/16/2000, the “% inhibition H9N2” value came out at 89%. In addition, in experiment [1], the “% inhibition H1N1” value turned out to be 91%.
For `CC[C@@H](C)[C@H]1NC(=O)[C@@H](Cc2ccccc2)NC(=O)[C@@H](CC(=O)O)NC(=O)[C@@H](Cc2ccccc2)NC(=O)[C@@H](Cc2c[nH]c3ccccc23)NC(=O)[C@@H]([C@H](C)O)NC(=O)[C@H](NC(=O)[C@H](CCCCN)NC(=O)[C@H](CCCCN)NC(=O)[C@H](CCCNC(=N)N)NC(=O)[C@@H](N)CCCNC(=N)N)CSSC[C@H](C(=O)O)NC(=O)[C@@H](CC(N)=O)NC1=O` [PSP IV A3, H-RRKKctwfdfinc-OH] (H-RRKK[dC][dT][dW][dF][dD][dF][dI][dN][dC]-OH; disulfide 5-13), the “% inhibition H3N8” value in the experiment with H3N8 A/Miami/2/63 is on record as 59%. Also, the “% Inhibition Pdm 2009” value with H1N1 A/NY/18/2009 worked out at 72%. Also, the “% inhibition H9N2” value with H9N2 A/Iran/16/2000 is 30%. Besides, the “% inhibition H1N1” value in experiment [1] is recorded as 49%.
